Results from US20100300896A1, “Redox Molecules And Methods Of Making The Same” (BAYER HEALTHCARE LLC, priority 2009, published 2010).
Like-named read-outs stand apart in the source and are kept apart here.

What was measured:
glucose dehydrogenase = assay: Output current from mediator in a mixture containing glucose and glucose dehydrogenase; assay type: biochemical; settings: mediator 3 mg/mL, 10 mM PBS buffer (pH 7.4), input potential 100 mV vs. Ag/AgCl, glucose 0 to 1.2 mM
Procedure: FIG. 2 depicts a graph illustrating output currents from mediator oxidation in response to an input potential when the mediator is in a mixture containing glucose and glucose dehydrogenase. The mediator was the composition used in FIGS. 1A and 1B. A 5 mm glassy carbon electrode served as a WE, Ag/AgCl as a RE, and platinum gauAge as a CE. The composition was present at a concentration of 2 mg/mL in a mixture containing 10 mM PBS buffer (pH 7.4), and the input potential was 100 mV vs. Ag/AgCl. […] Thus, the composition may be used as a mediator for the redox reaction correlating the glucose concentration in a sample with an electrical signal. Referring to FIG. 2, a compound having general formula (III), where X is bromine, can be used as a mediator for the redox reaction correlating the glucose concentration of a sample with an electrical signal. A 5 mm glassy carbon electrode served as a WE, Ag/AgCl as a RE, and platinum gauAge as a CE. The mediator was present at a concentration of 3 mg/mL in a mixture containing 10 mM PBS buffer (pH 7.4), and the input potential was 100 mV vs. Ag/AgCl. […] Thus, the composition may be used as a mediator for the redox reaction correlating the glucose concentration in a sample with an electrical signal.

[1] = Open circuit voltage between working electrode and reference electrode; assay type: physicochemical; settings: 10 mM PBS buffer
Procedure: The open circuit voltage between the WE and the RE also was measured for the mediator composition of FIGS. 1A and 1B. The open circuit voltage is a measure of the redox state of the mediator.
The open circuit voltage between the WE and the RE also was measured for the compound having general formula (III), where X is bromine.

[2] = Voltammetric scan of the mediator: output current in response to input potential (glassy carbon WE, Ag/AgCl RE, platinum CE); assay type: physicochemical; settings: for redox potential: mediator 1 mg/mL
From the text: FIGS. 1A and 1B depict graphs illustrating output currents from mediator reduction in response to an input potential. The mediator was a composition including a 3:2 molar mixture of a first compound having the general formula (I), and a second compound having the general formula (II), where X is bromine and each compound is present as the disodium salt. A 5 mm glassy carbon electrode served as a working electrode (WE), Ag/AgCl as a reference electrode (RE), and platinum gauAge as a counter electrode (CE). In FIG. 1A, the mediator composition was present at a concentration of 1 mg/mL in a mixture containing 10 mM PBS buffer (pH 7.4), and the input potential was scanned between −200 mV and 200 mV vs. Ag/AgCl. In FIG. 1B, the mediator composition was present at a concentration of 1 mg/mL in a mixture containing 100 mM PBS (pH 7.0) and 100 mM NaCl buffer solution, and the input potential was scanned between −100 mV and 200 mV vs. Ag/AgCl. Referring to FIG. 1B, when the scan rate was less than 50 mV/s, the oxidative and reductive peak separation was around 30-40 mV. […] The redox potential of the mediator composition of FIGS. 1A and 1B was about −3 mV vs. Ag/AgCl in the 10 mM PBS buffer (pH 7.4), and was about 40 mV vs. Ag/AgCl in the mixture of 100 mM PBS (pH 7.0) and 100 mM NaCl buffer. These redox potentials are similar to that of the conventional mediator (E)-2-(3H-phenothiaAgine-3-ylideneamino)benAgene-1,4-disulfonic acid (Structure A), which is −50 mV vs. Ag/AgCl. FIG. 5A and FIG. 5B depict graphs illustrating output currents from mediator reduction in response to an input potential. The mediator was a compound having general formula (III), where X is bromine. A 5 mm glassy carbon electrode served as a WE, Ag/AgCl as a RE, and platinum gauAge as a CE. In FIG. 5A, the mediator was present at a concentration of 1 mg/mL in a mixture containing 10 mM PBS buffer (pH 7.4), and the input potential was scanned between −200 mV and 200 mV vs. Ag/AgCl. […]

[3] = conventional mediator, buffer not stated; cited from earlier work

Compound: O=S(=O)(O)c1ccc(S(=O)(=O)O)c(N=c2cc3sc4ccccc4nc-3cc2OCCCCCCCCBr)c1 [2-(2-(8-bromooctanoxy)-3H-phenothiaAgin-3-ylideneamino)benAgene-1,4-disulfonic acid]
- output current vs glucose concentration (glucose dehydrogenase): output current increased as the glucose concentration increased from 0 to 1.2 mM
- open circuit voltage [1]: 111 mV vs. Ag/AgCl
- redox potential ([2]; 10 mM PBS buffer (pH 7.4)): about 3 mV vs. Ag/AgCl
- redox potential ([2]; mixture of 100 mM PBS (pH 7.0) and 100 mM NaCl buffer): about 15 mV vs. Ag/AgCl
- oxidative and reductive peak separation ([2]; scan rate less than 50 mV/s, 100 mM PBS (pH 7.0) and 100 mM NaCl buffer, 1 mg/mL): 30-40 mV

Compound: O=S(=O)(O)c1ccc(S(=O)(=O)O)c(/N=c2\ccc3nc4ccccc4sc-3c2)c1 [Structure A, (E)-2-(3H-phenothiaAgine-3-ylideneamino)benAgene-1,4-disulfonic acid]
- redox potential [3]: −50 mV vs. Ag/AgCl
